Reference: PubChem BioAssay (NCI)
Values joined by “and” are separate entries in the source; they are usually repeats but may differ in a detail not shown here. Equal values may be shown once.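 Cells were grown in 96-well plates and exposed to each compound for 48 hours at five concentrations; endpoints were interpolated linearly between bracketing concentrations, or set to the highest concentration if not reached. GI50 is the concentration that inhibits growth by half. The concentration for full growth arrest is given as TGI.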

Each compound was assayed on ACHN renal (assay: NCI-60 cell line screen, 48 h).

| Compound | TGI | GI50 [µM] |
| --- | --- | --- |
| Cc1nc(N)sc1C(=O)/C=C\c1ccc2c(c1)OCO2 | > 100 µM | – |
| COc1cc(C(C)O)c[n+](CCc2c[nH]c3ccccc23)c1 (stereo unspecified) | > 100 µM | – |
| CC1(C)SCc2nc3ncccc3n21 | > 100 µM | – |
| Cn1c(=O)c(C(c2ccc([N+](=O)[O-])cc2)c2c(O)c3ccccc3n(C)c2=O)cc2ccccc21 (stereo unspecified) | > 100 µM | – |
| COc1ccc(C(=O)C(C(=O)CCC(=O)Nc2cccc(Cl)c2)c2ccc(OC)cc2)cc1 (stereo unspecified) | > 100 µM | – |
| CCOC(=O)C1=C(C)N(NC(=O)Nc2ccccc2)C(=O)C1=P(c1ccccc1)(c1ccccc1)c1ccccc1 | > 100 µM | – |
| COc1cc(C=C2C(=O)NC(=O)NC2=O)cc(OC)c1OC | > 100 µM | – |
| Nn1c(=O)n(Cc2ccccc2)n(-c2ccccc2)c1=O | > 100 µM | – |
| NCC1Nc2ccccc2[C@@H](O)C1O (stereo partly specified) | > 100 µM | – |
| OC[C@H]1CCCC1O (stereo partly specified) | > 100 µM | – |
| Cc1cccc(N2CCN(C(=S)c3ccc4c(c3)OCO4)CC2)c1 | > 100 µM | 3.88 |
| Cc1ccc(C2=C(c3ccccc3)C(Br)(c3ccc(C)cc3)C(c3ccccc3)=C2c2ccc(C)cc2)cc1 | > 100 µM | – |
| N#CCN1C(=O)c2cccc3cc([N+](=O)[O-])cc(c23)C1=O | > 100 µM | – |
| O=C1CCN2C(=O)CCN12 | > 100 µM | – |
| Cc1cc(S(=O)(=O)Nc2nnc(-c3ccccc3)c(-c3ccccc3)n2)c(SCC(N)=O)cc1Cl | > 100 µM | > 100 |
| CC1CC[C@]2(C(=O)O)CCC3(C)C(=CC(=O)C4[C@@]5(C)CCC(=O)C(C)(C)C5CC[C@]43C)[C@@H]2[C@H]1C (stereo partly specified) | > 100 µM | – |
| CC(C)C(Nc1c2ccccc2nc2ccccc12)C(=O)O (stereo unspecified) | > 100 µM | – |
| COc1ccccc1CCc1cc(OC)c(OC)c(OC)c1 | > 100 µM | – |
| COc1cc2c(cc1OC)C(CC(=O)NN=C(C)C)NCC2 (stereo unspecified) | > 100 µM | – |
| COC(=O)/C(=N\Nc1nnc(C)n1N)C(C#N)c1ccc(Cl)cc1 (stereo unspecified) | > 100 µM | – |
| Cc1cccc(NC(=O)C(=O)C(C(=O)c2ccc3ccccc3c2)C2OC(=O)c3ccccc32)c1C (stereo unspecified) | 81.4 µM | – |

| Compound | TGI | GI50 [µM] |
| --- | --- | --- |
| CS/C(N)=N\NC(=O)CCC(=O)Nc1ccccc1C(F)(F)F | > 100 µM | – |
| CC(C)(C)c1ccc2c(c1)S(=O)(=O)Nc1ccccc1NS(=O)(=O)c1cc(C(C)(C)C)ccc1OCCOCCOCCO2 | > 100 µM | – |
| COc1cc(/C=C/c2cc(/C=C/c3ccc(O)c(OC)c3)n(C(=O)Nc3ccc(F)c(Cl)c3)n2)ccc1O | 7.49 µM | 0.141 |
| CC(=O)[O-].CCN(CC)c1ccc(C=NCCN=Cc2ccc(N(CC)CC)cc2[O-])c([O-])c1.[Mn+3] | > 100 µM | > 100 |
| Clc1ccc(C2=Nn3c(COc4ccccc4Cl)nnc3SC2)c(Cl)c1 | 51.6 µM | 17.3 |
| NC(N)=N/N=C(\c1nc2ccc([N+](=O)[O-])cc2[nH]c1=O)C(O)c1ccc([N+](=O)[O-])cc1 (stereo unspecified) | > 100 µM | – |
| COc1cc2nc3cc([N+](=O)[O-])ccc3c(NCCCNCCO)c2cc1OC | 0.914 µM | 0.256 |
| CCC[CH2][Sn]1([CH2]CCC)[O]CC(CN2CCCC2)[O]1 (stereo unspecified) | 31.4 µM | 17.3 |
| CC1(C)C(=O)N(CCCCCCN2C(=O)C(C)(C)c3ccccc32)c2ccccc21 | 97 µM | – |
| NCCCCN(CCCN)/[N+]([O-])=N\O | > 100 µM | – |
| CCOC(=O)c1c(C)n(Cc2ccc(Cl)cc2Cl)c2c1c(CN(C)C)c(O)c1[nH]cnc12 | 28.7 µM | 15.4 |
| CCOc1ccccc1NC(=O)CC(C(=O)OC)C(=O)C(=O)OC (stereo unspecified) | > 100 µM | – |
| COc1cccc2c1C(=O)c1c(O)c3c(c(O)c1C2=O)C[C@@](O)(C(C)=O)C[C@@H]3OC1OC(C)C(O)C(N)C1Br (stereo partly specified) | 0.174 µM and 0.139 µM | – |
| C[C@@]12CC=C3c4nc(Nc5cccc(O)c5)sc4CC[C@]3(C)[C@H]1CC[C@]1(C)C(=O)CC[C@@H]21 | 5.45 µM | 2.27 |
| COC(=O)C1=C(C)N(NC(=O)OC(C)(C)C)C(=O)C1=P(c1ccccc1)(c1ccccc1)c1ccccc1 | > 100 µM | – |
| O=C1OC(c2ccccc2)=N/C1=C\c1cccc2ccccc12 | > 100 µM | – |
| Cc1cccc(NC(=O)/C(=N\NC(C)(C)C)C2NC(=S)NC2=O)c1C (stereo unspecified) | > 100 µM | – |
| C[C@@H]1CC(=O)C2CCCC1C2=O (stereo partly specified) | > 100 µM | – |
| COC1=C(C)C(=O)c2c(c(COC(N)=O)c3n2CC2C3N2C)C1=O (stereo unspecified) | < 0.0139 µM | – |
| c1ccc(CNn2nnc3ccccc32)cc1 | > 100 µM | – |

The compounds below were run on EKVX NSCLC (assay: NCI-60 cell line screen, 48 h).

| Compound | TGI | GI50 [µM] |
| --- | --- | --- |
| Cc1nc(N)sc1C(=O)/C=C\c1ccc2c(c1)OCO2 | > 100 µM | – |
| COc1cc(C(C)O)c[n+](CCc2c[nH]c3ccccc23)c1 (stereo unspecified) | > 100 µM | – |
| CC1(C)SCc2nc3ncccc3n21 | > 100 µM | – |
| Cn1c(=O)c(C(c2ccc([N+](=O)[O-])cc2)c2c(O)c3ccccc3n(C)c2=O)cc2ccccc21 (stereo unspecified) | > 100 µM | – |
| Cc1cn(C2CC(O)C(CO)O2)c(=O)n2nnnc12 (stereo unspecified) | > 100 µM | – |
| COc1ccc(C(=O)C(C(=O)CCC(=O)Nc2cccc(Cl)c2)c2ccc(OC)cc2)cc1 (stereo unspecified) | > 100 µM | – |
| CCOC(=O)C1=C(C)N(NC(=O)Nc2ccccc2)C(=O)C1=P(c1ccccc1)(c1ccccc1)c1ccccc1 | > 100 µM | – |
| COc1cc(C=C2C(=O)NC(=O)NC2=O)cc(OC)c1OC | > 100 µM | – |
| NCC1Nc2ccccc2[C@@H](O)C1O (stereo partly specified) | > 100 µM | – |
| Cc1cccc(N2CCN(C(=S)c3ccc4c(c3)OCO4)CC2)c1 | > 100 µM | 7.12 |
| Cc1ccc(C2=C(c3ccccc3)C(Br)(c3ccc(C)cc3)C(c3ccccc3)=C2c2ccc(C)cc2)cc1 | > 100 µM | – |
| N#CCN1C(=O)c2cccc3cc([N+](=O)[O-])cc(c23)C1=O | > 100 µM | – |
| O=C1CCN2C(=O)CCN12 | > 100 µM | – |
| Cc1cc(S(=O)(=O)Nc2nnc(-c3ccccc3)c(-c3ccccc3)n2)c(SCC(N)=O)cc1Cl | > 100 µM | > 100 |
| CC1CC[C@]2(C(=O)O)CCC3(C)C(=CC(=O)C4[C@@]5(C)CCC(=O)C(C)(C)C5CC[C@]43C)[C@@H]2[C@H]1C (stereo partly specified) | > 100 µM | – |
| CC(C)C(Nc1c2ccccc2nc2ccccc12)C(=O)O (stereo unspecified) | > 100 µM | – |
| COc1ccccc1CCc1cc(OC)c(OC)c(OC)c1 | > 100 µM | – |
| COc1cc2c(cc1OC)C(CC(=O)NN=C(C)C)NCC2 (stereo unspecified) | > 100 µM | – |
| COC(=O)/C(=N\Nc1nnc(C)n1N)C(C#N)c1ccc(Cl)cc1 (stereo unspecified) | > 100 µM | – |

| Compound | TGI | GI50 [µM] |
| --- | --- | --- |
| Cc1cccc(NC(=O)C(=O)C(C(=O)c2ccc3ccccc3c2)C2OC(=O)c3ccccc32)c1C (stereo unspecified) | 77.8 µM | – |
| CS/C(N)=N\NC(=O)CCC(=O)Nc1ccccc1C(F)(F)F | > 100 µM | – |
| CC(C)(C)c1ccc2c(c1)S(=O)(=O)Nc1ccccc1NS(=O)(=O)c1cc(C(C)(C)C)ccc1OCCOCCOCCO2 | > 100 µM | – |
| COc1cc(/C=C/c2cc(/C=C/c3ccc(O)c(OC)c3)n(C(=O)Nc3ccc(F)c(Cl)c3)n2)ccc1O | 6.98 µM | 1.22 |
| CC(=O)[O-].CCN(CC)c1ccc(C=NCCN=Cc2ccc(N(CC)CC)cc2[O-])c([O-])c1.[Mn+3] | > 100 µM | 39.6 |
| Clc1ccc(C2=Nn3c(COc4ccccc4Cl)nnc3SC2)c(Cl)c1 | 80.8 µM | 23.7 |
| COc1cc2nc3cc([N+](=O)[O-])ccc3c(NCCCNCCO)c2cc1OC | 4.63 µM | 0.353 |
| CCC[CH2][Sn]1([CH2]CCC)[O]CC(CN2CCCC2)[O]1 (stereo unspecified) | 33.2 µM | 12.9 |
| CC1(C)C(=O)N(CCCCCCN2C(=O)C(C)(C)c3ccccc32)c2ccccc21 | > 100 µM | – |
| CCOC(=O)c1c(C)n(Cc2ccc(Cl)cc2Cl)c2c1c(CN(C)C)c(O)c1[nH]cnc12 | 42.9 µM | 22.5 |
| CCOc1ccccc1NC(=O)CC(C(=O)OC)C(=O)C(=O)OC (stereo unspecified) | > 100 µM | – |
| COc1cccc2c1C(=O)c1c(O)c3c(c(O)c1C2=O)C[C@@](O)(C(C)=O)C[C@@H]3OC1OC(C)C(O)C(N)C1Br (stereo partly specified) | 5.04 µM and 1.98 µM | 0.195 |
| C[C@@]12CC=C3c4nc(Nc5cccc(O)c5)sc4CC[C@]3(C)[C@H]1CC[C@]1(C)C(=O)CC[C@@H]21 | 83.3 µM | 5.93 |
| COC(=O)C1=C(C)N(NC(=O)OC(C)(C)C)C(=O)C1=P(c1ccccc1)(c1ccccc1)c1ccccc1 | > 100 µM | – |
| Cc1cccc(NC(=O)/C(=N\NC(C)(C)C)C2NC(=S)NC2=O)c1C (stereo unspecified) | > 100 µM | – |
| C[C@@H]1CC(=O)C2CCCC1C2=O (stereo partly specified) | > 100 µM | – |
| COC1=C(C)C(=O)c2c(c(COC(N)=O)c3n2CC2C3N2C)C1=O (stereo unspecified) | 0.376 µM | – |
| c1ccc(CNn2nnc3ccccc32)cc1 | > 100 µM | – |

These compounds were tested on HCC-2998 colon (assay: NCI-60 cell line screen, 48 h).

| Compound | TGI [µM] |
| --- | --- |
| Cc1nc(N)sc1C(=O)/C=C\c1ccc2c(c1)OCO2 | > 100 |
| COc1cc(C(C)O)c[n+](CCc2c[nH]c3ccccc23)c1 (stereo unspecified) | > 100 |
| CC1(C)SCc2nc3ncccc3n21 | > 100 |
| Cn1c(=O)c(C(c2ccc([N+](=O)[O-])cc2)c2c(O)c3ccccc3n(C)c2=O)cc2ccccc21 (stereo unspecified) | > 100 |
| Cc1cn(C2CC(O)C(CO)O2)c(=O)n2nnnc12 (stereo unspecified) | > 100 |
| COc1ccc(C(=O)C(C(=O)CCC(=O)Nc2cccc(Cl)c2)c2ccc(OC)cc2)cc1 (stereo unspecified) | > 100 |
| CCOC(=O)C1=C(C)N(NC(=O)Nc2ccccc2)C(=O)C1=P(c1ccccc1)(c1ccccc1)c1ccccc1 | > 100 |
| COc1cc(C=C2C(=O)NC(=O)NC2=O)cc(OC)c1OC | > 100 |
| Nn1c(=O)n(Cc2ccccc2)n(-c2ccccc2)c1=O | > 100 |
